Experiment: osmotic coefficient (dimensionless); mn = molality of the nth substance listed, in mol/kg
Settings: 323.15 K, Liquid, vapour pressure osmometer

COS(=O)(=O)[O-].Cn1cc[n+](C)c1 [1,3-dimethylimidazolium methylsulfate] + CC(C)O
Settings | osmotic coefficient
m1 = 0.0241 | 0.914
m1 = 0.0557 | 0.846
m1 = 0.2089 | 0.683
m1 = 0.3053 | 0.614
m1 = 0.3982 | 0.588
m1 = 0.6947 | 0.509
m1 = 0.9721 | 0.461
m1 = 1.274 | 0.442
m1 = 1.66 | 0.416
m1 = 2.058 | 0.392
m1 = 2.447 | 0.364
m1 = 2.827 | 0.343
m1 = 3.313 | 0.329
m1 = 3.712 | 0.323
m1 = 4.112 | 0.298

COS(=O)(=O)[O-].Cn1cc[n+](C)c1 [1,3-dimethylimidazolium methylsulfate] + CCCO
Settings | osmotic coefficient
m1 = 0.0512 | 0.848
m1 = 0.079 | 0.772
m1 = 0.0997 | 0.727
m1 = 0.2023 | 0.67
m1 = 0.2902 | 0.59
m1 = 0.3952 | 0.544
m1 = 0.488 | 0.526
m1 = 0.6881 | 0.492
m1 = 0.9815 | 0.454
m1 = 1.299 | 0.432
m1 = 1.691 | 0.396
m1 = 2.097 | 0.375
m1 = 2.545 | 0.36
m1 = 2.929 | 0.343
m1 = 3.323 | 0.334
m1 = 3.71 | 0.322

COS(=O)(=O)[O-].Cn1cc[n+](C)c1 [1,3-dimethylimidazolium methylsulfate] + CCO
Settings | osmotic coefficient
m1 = 0.0289 | 0.815
m1 = 0.0374 | 0.794
m1 = 0.0789 | 0.719
m1 = 0.0991 | 0.687
m1 = 0.1941 | 0.626
m1 = 0.3285 | 0.56
m1 = 0.4326 | 0.53
m1 = 0.5312 | 0.503
m1 = 0.6925 | 0.479
m1 = 0.9868 | 0.449
m1 = 1.284 | 0.424
m1 = 1.699 | 0.399
m1 = 2.078 | 0.382
m1 = 2.489 | 0.363
m1 = 2.937 | 0.345
m1 = 3.314 | 0.326
m1 = 3.709 | 0.325
m1 = 4.016 | 0.331

CCCCn1cc[n+](C)c1.COS(=O)(=O)[O-] [1-butyl-3-methylimidazolium methyl sulfate] + CC(C)O
Settings | osmotic coefficient
m1 = 0.0524 | 0.95
m1 = 0.0842 | 0.905
m1 = 0.1084 | 0.871
m1 = 0.2087 | 0.799
m1 = 0.3036 | 0.733
m1 = 0.4106 | 0.685
m1 = 0.4869 | 0.648
m1 = 0.682 | 0.588
m1 = 0.9823 | 0.523
m1 = 1.32 | 0.493
m1 = 1.692 | 0.488
m1 = 2.05 | 0.502
m1 = 2.446 | 0.48
m1 = 2.829 | 0.455
m1 = 3.311 | 0.451

CCCCn1cc[n+](C)c1.COS(=O)(=O)[O-] [1-butyl-3-methylimidazolium methyl sulfate] + CCCO
Settings | osmotic coefficient
m1 = 0.0437 | 0.873
m1 = 0.0547 | 0.829
m1 = 0.2041 | 0.691
m1 = 0.3571 | 0.639
m1 = 0.5002 | 0.628
m1 = 0.6627 | 0.628
m1 = 0.8487 | 0.629
m1 = 1.007 | 0.629
m1 = 1.28 | 0.628
m1 = 1.665 | 0.62
m1 = 2.143 | 0.599
m1 = 2.937 | 0.581

CCCCn1cc[n+](C)c1.COS(=O)(=O)[O-] [1-butyl-3-methylimidazolium methyl sulfate] + CCO
Settings | osmotic coefficient
m1 = 0.0495 | 0.78
m1 = 0.0783 | 0.716
m1 = 0.176 | 0.646
m1 = 0.3283 | 0.573
m1 = 0.3907 | 0.55
m1 = 0.5167 | 0.529
m1 = 0.6846 | 0.508
m1 = 0.9851 | 0.496
m1 = 1.318 | 0.499
m1 = 1.727 | 0.48
m1 = 2.093 | 0.474
m1 = 2.507 | 0.465
m1 = 2.914 | 0.448
m1 = 3.311 | 0.424
m1 = 3.697 | 0.408

Source: the NIST ThermoML archive (doi:10.1016/j.jct.2008.12.021)
